According to patent US8815503B2, “Compositions and methods for immunostimulatory RNA oligonucleotides” (Rheinische Friedrich-Wilhelms-Universitat Bonn, priority 2005, dated 2014):

Test system: PBMC
Assay: 193 ssRNA 4mer-motif library screen: IL-12 (IL-12p40) production in PBMC of six donors, poly-L-Arg complexation, ELISA at 44 hours, IL-12 index and adjusted IL-12 index
Assay type: cell-based, human
Parameters: key to Adjusted IL-12 index Mean: IL-12 index (ratio to 9.2sense) minus donor mean, averaged over 6 donors
Settings: for Adjusted IL-12 index Mean: 193 ssRNA oligonucleotide library, data from six individual donors summarized, ascending order
Experimental: FIG. 9: PBMC of six different healthy donors were isolated and stimulated with poly-L-arginine complexed ssRNA oligonucleotides in duplicates. 44 hours after stimulation IL-12p40 production was assessed in supernatant via ELISA. For all tested ssRNA oligonucleotides (table 3), the mean values of the measured duplicates were normalized to the positive control ssRNA oligonucleotide 9.2sense (5′-AGCUUAACCUGUCCUUCAA (SEQ ID NO: 194)) by dividing the mean value of tested oligonucleotide by the mean value of 9.2sense (=IL-12 index of a given oligonucleotide). Next, all individual IL-12 indices were adjusted to the mean value of all IL-12 indices by subtracting the mean value of all IL-12 indices from the individual IL-12 index of a given oligonucleotide (=adjusted IL-12 index). Data from six individual donors were summarized and were assorted in ascending order displaying the corresponding SEM (for a complete listing including numerical data see table 4). FIG. 9A discloses SEQ ID NOS 460-509, respectively, in order of appearance. FIG. 9B discloses SEQ ID NOS 510-559, respectively, in order of appearance. FIG. 9C discloses SEQ ID NOS 560-609, respectively, in order of appearance. FIG. 9D discloses SEQ ID NOS 610-652, respectively, in order of appearance.
All 193 ssRNA oligonucleotides were tested on PBMC of six individual healthy donors using poly-L-Arg for complexation. At 44 hours after stimulation with RNA oligonucleotides, supernatants were collected and IL-12 production was measured by ELISA. Prior to statistical analysis the raw data were processed as follows: for each cell culture plate the mean IL-12 value of the experimental duplicates for each tested ssRNA oligonucleotide were normalized to the ssRNA oligonucleotide RNA9.2sense (5′-AGCUUAACCUGUCCUUCAA-3′ (SEQ ID NO: 194)). This standard RNA oligonucleotide was included as a positive control on all cell culture plates. Normalization was performed by calculating the ratio of IL-12 induced by the tested oligonucleotide and IL-12 induced by the standard oligonucleotide RNA9.2sense. Thus, for each tested oligonucleotide in an individual donor a mean ratio of IL-12 induction was obtained. In the following, this mean of the ratios is referred to as IL-12 index (one value of IL-12 index per donor). […] The corresponding IL-12 index of oligonucleotide ANP175 for donor 3 was calculated to be 1.90 (=1725 pg/ml divided by 908 pg/ml).
Next, the means of all IL-12 indices for every individual donor were calculated. Then the adjusted IL-12 indices were calculated as IL-12 index minus the mean of all IL-12 indices of one individual donor. […] The adjusted IL-12 index of ANP175 was calculated: 1.90 minus 0.44=1.46. The adjusted IL-12 indices from all six donors were summarized by calculating the means and the corresponding standard error of mean. The data are depicted in ascending order (FIG. 9A, B, C, D). The adjusted IL-12 indices of the top thirty ssRNA oligonucleotides of all six donors were compared using a two-tailed Student's t-test (FIG. 10). For most combinations tested, a significant difference was observed when the interval between the analyzed pairs was at least eight or nine places in the assortment.

Substance	Adjusted IL-12 index Mean	also measured
AAAAAAAGUCGAAAAAAAA (RNA, backbone not given here) [ANP-Oligo 138]	0.02	–
AAAAAAAUACGAAAAAAAA (RNA, backbone not given here) [ANP-Oligo 150]	−0.3	–
AAAAAAAGCGGAAAAAAAA (RNA, backbone not given here) [ANP-Oligo 117]	−0.63	–
AAAAAAACUAGAAAAAAAA (RNA, backbone not given here) [ANP-Oligo 087]	−0.03	–
AAAAAAAAUCCAAAAAAAA (RNA, backbone not given here) [ANP-Oligo 041]	−0.48	–
AAAAAAAUGACAAAAAAAA (RNA, backbone not given here) [ANP-Oligo 170]	0.86	–
AAAAAAACGCGAAAAAAAA (RNA, backbone not given here) [ANP-Oligo 078]	−0.59	–
AAAAAAAUUGGAAAAAAAA (RNA, backbone not given here) [ANP-Oligo 189]	0.66	–
AAAAAAAAGUGAAAAAAAA (RNA, backbone not given here) [ANP-Oligo 036]	−0.12	–
AAAAAAAUCUGAAAAAAAA (RNA, backbone not given here) [ANP-Oligo 168]	0.45	–
AAAAAAAGUCUAAAAAAAA (RNA, backbone not given here) [ANP-Oligo 139]	0.05	–
AAAAAAAUAUUAAAAAAAA (RNA, backbone not given here) [ANP-Oligo 157]	0.46	–
AAAAAAAGGUUAAAAAAAA (RNA, backbone not given here) [ANP-Oligo 133]	1.51	–
AAAAAAAGCCUAAAAAAAA (RNA, backbone not given here) [ANP-Oligo 115]	0.15	–
AAAAAAAUGGGAAAAAAAA (RNA, backbone not given here) [ANP-Oligo 177]	−0.35	–
AAAAAAACCCCAAAAAAAA (RNA, backbone not given here) [ANP-Oligo 065]	−0.59	–
AAAAAAAACAAAAAAAAAA (RNA, backbone not given here) [ANP-Oligo 002]	−0.57	–
AAAAAAAUGCUAAAAAAAA (chemistry not given here) [ANP-Oligo 175]	1.85	adjusted IL-12 index (donor 3, IL-12 index minus mean of all IL-12 indices of the donor): 1.46; IL-12 in supernatant, mean of the two raw values of the duplicates (donor 3, poly-L-Arg complexed, 44 hours): 1725 pg/mL; IL-12 index (donor 3, ratio to RNA9.2sense): 1.90
AAAAAAACUCCAAAAAAAA (RNA, backbone not given here) [ANP-Oligo 089]	−0.42	–

Substance	Adjusted IL-12 index Mean	also measured
AAAAAAAGUAUAAAAAAAA (RNA, backbone not given here) [ANP-Oligo 136]	1.04	–
AAAAAAAGUGUAAAAAAAA (RNA, backbone not given here) [ANP-Oligo 142]	1.23	–
AAAAAAAGAUCAAAAAAAA (RNA, backbone not given here) [ANP-Oligo 107]	−0.2	–
AAAAAAAAUAGAAAAAAAA (RNA, backbone not given here) [ANP-Oligo 039]	−0.05	–
AAAAAAACAUCAAAAAAAA (RNA, backbone not given here) [ANP-Oligo 059]	−0.48	–
AAAAAAAGGUCAAAAAAAA (RNA, backbone not given here) [ANP-Oligo 131]	0.12	–
AAAAAAAGUGCAAAAAAAA (RNA, backbone not given here) [ANP-Oligo 140]	0.99	–
AAAAAAAUUACAAAAAAAA (RNA, backbone not given here) [ANP-Oligo 182]	0.11	–
AAAAAAAGAACAAAAAAAA (RNA, backbone not given here) [ANP-Oligo 098]	−0.6	–
AAAAAAACUGGAAAAAAAA (RNA, backbone not given here) [ANP-Oligo 093]	−0.31	–
AAAAAAAUGUCAAAAAAAA (RNA, backbone not given here) [ANP-Oligo 179]	0.9	–
AAAAAAAAGACAAAAAAAA (RNA, backbone not given here) [ANP-Oligo 026]	−0.6	–
AAAAAAAAGUCAAAAAAAA (RNA, backbone not given here) [ANP-Oligo 035]	−0.22	–
AAAAAAAUAUGAAAAAAAA (RNA, backbone not given here) [ANP-Oligo 156]	0.27	–
AAAAAAAUCACAAAAAAAA (RNA, backbone not given here) [ANP-Oligo 158]	−0.39	–
AAAAAAACUCGAAAAAAAA (RNA, backbone not given here) [ANP-Oligo 090]	−0.54	–
AAAAAAAAUACAAAAAAAA (RNA, backbone not given here) [ANP-Oligo 038]	−0.32	–
AAAAAAACGGUAAAAAAAA (RNA, backbone not given here) [ANP-Oligo 082]	0.29	–
AAAAAAAGGCUAAAAAAAA (RNA, backbone not given here) [ANP-Oligo 127]	0.11	–

Substance	Adjusted IL-12 index Mean	also measured
AAAAAAAGAUGAAAAAAAA (RNA, backbone not given here) [ANP-Oligo 108]	0.08	–
AAAAAAACAGCAAAAAAAA (RNA, backbone not given here) [ANP-Oligo 056]	−0.54	–
AAAAAAACCGCAAAAA4AA (DNA AAAAAAACCGCAAAAAAAA; RNA, backbone not given here) [ANP-Oligo 068]	−0.56	–
AAAAAAAUAUCAAAAAAAA (RNA, backbone not given here) [ANP-Oligo 155]	0.33	–
AAAAAAAGCACAAAAAAAA (RNA, backbone not given here) [ANP-Oligo 110]	−0.58	–
AAAAAAAGUUCAAAAAAAA (RNA, backbone not given here) [ANP-Oligo 143]	0.56	–
AAAAAAAGGGUAAAAAAAA (RNA, backbone not given here) [ANP-Oligo 130]	−0.44	–
AAAAAAAUAGGAAAAAAAA (RNA, backbone not given here) [ANP-Oligo 153]	0.42	–
AAAAAAAGACGAAAAAAAA (RNA, backbone not given here) [ANP-Oligo 102]	−0.64	–
AAAAAAAGAGGAAAAAAAA (RNA, backbone not given here) [ANP-Oligo 105]	−0.62	–
AAAAAAACAGUAAAAAAAA (RNA, backbone not given here) [ANP-Oligo 058]	0.22	–
AAAAAAAGACCAAAAAAAA (RNA, backbone not given here) [ANP-Oligo 101]	−0.6	–
AAAAAAAUCUUAAAAAAAA (RNA, backbone not given here) [ANP-Oligo 169]	0.67	–
AAAAAAACACCAAAAAAAA (RNA, backbone not given here) [ANP-Oligo 053]	−0.67	–
AAAAAAAACCAAAAAAAAA (RNA, backbone not given here) [ANP-Oligo 005]	−0.62	–
AAAAAAAGGUGAAAAAAAA (RNA, backbone not given here) [ANP-Oligo 132]	0.47	–
AAAAAAAGUACAAAAAAAA (RNA, backbone not given here) [ANP-Oligo 134]	0.42	–
AAAAAAAAGGUAAAAAAAA (RNA, backbone not given here) [ANP-Oligo 034]	2.21	–
